From paper PMC3407616, “Inhibition of Heme Peroxidases by Melamine” (Enzyme Research, 2012)

What was measured:
lactoperoxidase (LPO) = lactoperoxidase (LPO) (Bos taurus, UniProt P80025); test: iodide oxidation (HOI formation), absorbance […] nm, kinetic fit; format: biochemical; conditions: read-out: LPO^b
I = test: purified protein; conditions: pH 6.0

| Ki (lactoperoxidase (LPO)) | Molecule | Km (I) |
| --- | --- | --- |
| 15 ± 5 mM | Nc1nc(N)nc(N)n1 [melamine, 2,4,6-triamino-1,3,5-triazine] |  |
|  | lactoperoxidase (LPO) (Bos taurus) | 2900 ± 400 µM |
